{"source": "paper PMC12385147", "about": "“Discovery of Novel 2-Substituted Aniline Pyrimidine Based Derivatives as Potent Mer/c-Met Dual Inhibitors with Improvement Bioavailability” (Biomolecules, 2025)", "key": {"HCT116": {"system": "HCT116", "assay": "Antiproliferation CCK-8 assay, HCT116", "type": "cell-based", "conditions": "for IC50: Homo sapiens, HCT-116", "method": "(§1) The HepG2, MDA-MB-231, and HCT116 cell lines were derived from our own laboratory (the laboratory of our collaborator, Dr. Xiaolei Zhou, at College of Food Science and Biology in Hebei University of Science and Technology). The antiproliferative activities were assessed using the CCK-8 assay. Cell viability was measured according to the manufacturer’s instructions for the Cell Counting Kit-8 (Meilunbio, Dalian, China). In this assay, 2.5 × 10^3 cells per well were seeded into 96-well plates.\n(§2) After an initial 12 h incubation, cancer cells were exposed to varying concentrations of compound 17c for 72 h. Following CCK-8 solution addition and 2 h incubation, the absorbance at 450 nm was measured using a BioTek Synergy HTX microplate reader. Experiments included triplicate wells with three independent replicates. The IC50 values for compound 17c were derived from an analysis of the dose–response curves in GraphPad PRISM 9.5."}, "[1]": {"system": "Mer kinase phosphorylation", "assay": "Western blot, Mer phosphorylation in HCT116 cells", "type": "cell-based, human", "conditions": "2.5 μM, 24 h, compared to the positive control", "method": "Western blot assay was performed according to established protocols. HCT colon cancer cells were exposed to the specified concentration of compound 17c for 24 h, after which whole cell lysates were prepared using RAPI cell lysis buffer (Beyotime Institute of Biotechnology, Shanghai, China). Primary antibodies, purchased from Beyotime Institute of Biotechnology, were diluted at a ratio of 1:2000. The protein bands on polyvinylidene fluoride membranes were visualized and analyzed using Glyco Band-Scan Software Version 4.50. The antibody details are as follows:\nName: Phospho-MER/TYRO3 (Tyr753/Tyr685) antibody, Species: Rabit, Sequence: synthesized peptide derived from human MER/TYRO3 around the Phosphorylation site of Tyr753/Tyr685, Dilution: 1:2000, RRID number: AB_2840500, Catalogue number: AF8443, Supplier: Affinity Biosciences (Beijing, China)."}, "HCT116 cells [2]": {"system": "HCT116 cells", "assay": "TUNEL apoptosis assay in HCT116 cells", "type": "cell-based", "conditions": "48 h", "method": "Apoptosis was analyzed in a dose-dependent manner using the One Step TUNEL Apoptosis Assay Kit (Meilunbio, Dalian, China). HCT116 cells (1.5 × 10^4 cells/well) were seeded onto TC-treated glass coverslips in 24-well plates and incubated for 24 h. Following this, the cells were exposed to varying concentrations of compound 17c for 48 h. After treatment, the cells were fixed with 4% paraformaldehyde and permeabilized with 0.3% Triton-X-100. TUNEL staining was performed as per the manufacturer’s guidelines, with DAPI used for nuclear counterstaining. Fluorescent images were obtained using an Olympus microscope. The ED50 value for compound 17c was calculated using GraphPad PRISM 9.5. Each assay was performed in triplicate and repeated three times for consistency."}, "HCT116 cells [3]": {"system": "HCT116 cells", "assay": "Transwell migration assay of HCT116 cells", "type": "cell-based", "conditions": "24 h", "method": "Migration assays were conducted using Transwell® inserts (Costar, Cambridge, MA, USA) with an 8 μm pore size polycarbonate membrane. HCT116 cells (1.5 × 10^5) were seeded into the upper chamber with serum-free medium containing 0.2% BSA, while the lower chamber contained medium supplemented with 15% FBS. Compound 17c was applied at the specified concentrations to both sides of the membrane. After 24 h of incubation at 37 °C, the cells were fixed in methanol and stained with 0.1% crystal violet. Non-migrated cells on the upper surface of the membrane were removed using a cotton swab. Five random fields per well were imaged under brightfield microscopy, and the number of migrated cells was quantified using ImageJ software (1.53c). Each experiment was performed in triplicate."}, "CAKI-1 renal cancer": {"system": "CAKI-1 renal cancer", "assay": "Antiproliferation CCK-8 assay, CAKI-1", "type": "cell-based"}, "[4]": {"assay": "Plasma protein binding, equilibrium dialysis, human plasma", "type": "in vitro ADME", "conditions": "for fraction unbound at 6 h, 1 μM: human, plasma"}, "MDA-MB-231": {"system": "MDA-MB-231", "assay": "Antiproliferation CCK-8 assay, MDA-MB-231", "type": "cell-based", "conditions": "Homo sapiens, CCK-8, 72 h", "method": "as §1, §2"}, "hERG potassium channel": {"molecular_target": "hERG potassium channel (Homo sapiens, UniProt Q12809)", "sequence (Q12809 whole entry)": "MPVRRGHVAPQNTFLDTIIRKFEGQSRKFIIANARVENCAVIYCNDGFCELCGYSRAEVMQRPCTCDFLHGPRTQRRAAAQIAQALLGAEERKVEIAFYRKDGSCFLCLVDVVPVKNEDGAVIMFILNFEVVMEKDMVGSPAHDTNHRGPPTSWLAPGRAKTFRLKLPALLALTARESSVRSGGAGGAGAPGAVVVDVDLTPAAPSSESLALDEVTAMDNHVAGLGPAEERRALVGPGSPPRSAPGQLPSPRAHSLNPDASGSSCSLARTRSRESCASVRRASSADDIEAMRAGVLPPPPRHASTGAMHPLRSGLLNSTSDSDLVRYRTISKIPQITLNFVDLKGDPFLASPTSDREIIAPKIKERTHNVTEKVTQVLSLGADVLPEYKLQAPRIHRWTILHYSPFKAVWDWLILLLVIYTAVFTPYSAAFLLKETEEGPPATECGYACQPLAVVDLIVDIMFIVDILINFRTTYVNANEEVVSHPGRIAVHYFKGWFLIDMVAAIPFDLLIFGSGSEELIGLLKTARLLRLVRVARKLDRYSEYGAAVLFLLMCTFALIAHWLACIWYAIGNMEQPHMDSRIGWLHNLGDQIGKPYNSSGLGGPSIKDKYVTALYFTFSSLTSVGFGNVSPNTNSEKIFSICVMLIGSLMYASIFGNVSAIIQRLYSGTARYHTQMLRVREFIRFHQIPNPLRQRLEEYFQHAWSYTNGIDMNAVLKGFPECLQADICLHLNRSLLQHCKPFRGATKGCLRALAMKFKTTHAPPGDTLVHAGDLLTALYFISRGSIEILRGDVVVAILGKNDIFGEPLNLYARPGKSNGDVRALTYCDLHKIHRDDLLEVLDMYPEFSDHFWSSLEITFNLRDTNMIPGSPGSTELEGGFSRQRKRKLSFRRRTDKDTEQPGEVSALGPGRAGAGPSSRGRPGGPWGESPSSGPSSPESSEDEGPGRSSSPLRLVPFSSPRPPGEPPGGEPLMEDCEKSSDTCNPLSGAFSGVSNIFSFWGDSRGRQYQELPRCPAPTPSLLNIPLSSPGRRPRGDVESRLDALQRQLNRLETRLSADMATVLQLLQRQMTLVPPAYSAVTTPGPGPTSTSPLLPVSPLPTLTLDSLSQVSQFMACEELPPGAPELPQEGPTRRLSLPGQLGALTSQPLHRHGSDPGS", "assay": "hERG potassium channel QPatch automated patch clamp in CHO cells"}, "c-Met kinase": {"molecular_target": "T1, c-Met kinase (Homo sapiens, UniProt P08581)", "T1 construct": "purchased Invitrogen (Shanghai, China)", "T1 sequence (P08581 25-1390)": "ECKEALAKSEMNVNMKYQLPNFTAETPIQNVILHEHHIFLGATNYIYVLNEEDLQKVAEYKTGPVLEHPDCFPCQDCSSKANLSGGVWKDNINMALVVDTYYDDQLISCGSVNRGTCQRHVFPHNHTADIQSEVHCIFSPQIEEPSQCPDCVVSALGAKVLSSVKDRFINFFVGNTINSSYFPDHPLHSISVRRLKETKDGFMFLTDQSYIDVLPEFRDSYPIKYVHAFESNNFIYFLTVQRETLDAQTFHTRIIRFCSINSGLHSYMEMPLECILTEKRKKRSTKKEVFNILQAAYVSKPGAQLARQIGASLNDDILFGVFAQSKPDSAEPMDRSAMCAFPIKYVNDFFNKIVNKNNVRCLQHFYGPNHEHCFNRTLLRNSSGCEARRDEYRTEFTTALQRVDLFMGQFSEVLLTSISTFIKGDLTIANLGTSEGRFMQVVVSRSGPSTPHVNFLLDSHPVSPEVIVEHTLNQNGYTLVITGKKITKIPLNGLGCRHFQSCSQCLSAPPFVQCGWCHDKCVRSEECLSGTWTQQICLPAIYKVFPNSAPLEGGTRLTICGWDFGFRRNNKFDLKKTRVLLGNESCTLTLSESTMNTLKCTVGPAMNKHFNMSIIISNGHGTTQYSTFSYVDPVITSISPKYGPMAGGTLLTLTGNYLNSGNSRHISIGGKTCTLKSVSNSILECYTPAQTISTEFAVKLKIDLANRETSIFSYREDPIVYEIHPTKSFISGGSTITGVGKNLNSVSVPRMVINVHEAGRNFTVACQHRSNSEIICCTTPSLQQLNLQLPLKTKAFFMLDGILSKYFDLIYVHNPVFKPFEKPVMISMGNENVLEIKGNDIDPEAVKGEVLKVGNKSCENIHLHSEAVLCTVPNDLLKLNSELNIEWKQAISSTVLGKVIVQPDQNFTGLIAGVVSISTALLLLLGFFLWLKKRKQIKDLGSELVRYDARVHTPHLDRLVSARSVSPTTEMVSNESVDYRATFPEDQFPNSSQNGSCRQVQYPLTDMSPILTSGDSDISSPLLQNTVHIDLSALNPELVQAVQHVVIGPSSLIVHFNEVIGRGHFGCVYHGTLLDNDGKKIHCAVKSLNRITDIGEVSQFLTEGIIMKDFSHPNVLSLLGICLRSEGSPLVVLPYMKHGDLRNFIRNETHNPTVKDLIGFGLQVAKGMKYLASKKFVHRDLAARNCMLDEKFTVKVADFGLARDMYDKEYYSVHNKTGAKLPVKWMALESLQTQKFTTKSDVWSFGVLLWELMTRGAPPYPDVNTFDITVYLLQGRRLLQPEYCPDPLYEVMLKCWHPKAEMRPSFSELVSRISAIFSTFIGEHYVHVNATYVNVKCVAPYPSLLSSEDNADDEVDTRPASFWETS", "assay": "c-Met kinase inhibition assay (TK-Sub-Biotin / cryptate detection)", "type": "biochemical", "conditions": "means from three independent experiments"}, "[5]": {"assay": "Pharmacokinetics in SD rats", "type": "in vivo", "conditions": "rat; for MRT inf: read-out: MRTINF_obs", "method": "Male and female SD rats (SLRC Laboratory Animal Inc., Shanghai, China) were used for the study. In the oral (PO) administration, 3 rats per group were given a single 10 mg/kg dose. Blood samples (100 μL per time point) were collected via jugular vein cannula and taken at 5, 15, and 30 min, and 1, 2, 4, 8, and 24 h post-dose. For the intravenous (IV) administration, 3 rats per group received 2.0 mg/kg, and blood samples were collected at 5, 15, and 30 min, and 1, 2, and 4 h after dosing. Rats were fasted overnight prior to dosing and remained fasted for 6 h post-dose. Plasma was separated by centrifugation and stored at –40 °C until analysis. Compound concentrations were determined by LC/MS/MS (Shimadzu LC-30AD), and pharmacokinetic parameters, including Cmax, Tmax, T1/2, and AUC0-inf, were calculated."}, "[6]": {"conditions": "both sexes, plasma, iv, SD rats, 2 mg/kg"}, "[7]": {"conditions": "both sexes, plasma, po, SD rats, 10 mg/kg"}}, "note": "Like-named read-outs stand apart in the source and are kept apart here."}
{"smiles": "Cc1c(C(=O)Nc2ccc(Oc3ccnc(Nc4cccc(OC5CCN(C)CC5)c4)n3)cc2)c(=O)n(-c2ccccc2)n1C", "note": "[compound 17c, 1,5-dimethyl-N-(4-((2-((3-((1-methylpiperidin-4-yl)oxy)phenyl)amino)pyrimidin-4-yl)oxy)phenyl)-3-oxo-2-phenyl-2,3-dihydro-1H-pyrazole-4-carboxamide]", "values": [{"measurement": "fold improvement over cabozantinib", "setting": "HCT116; HCT116 cells", "result": 17.1, "unit": "fold"}, {"measurement": "IC50", "setting": "HCT116; CCK-8, 72 h, read-out: IC50 HCT116", "result": "3.79 ± 1.09", "unit": "µM"}, {"measurement": "IC50", "setting": "HCT116; CCK-8, read-out: IC50 HCT116 cells", "result": "0.46 ± 0.06", "unit": "µM"}, {"measurement": "inhibition of Mer kinase phosphorylation", "setting": "[1]", "result": "significantly inhibited the phosphorylation"}, {"measurement": "ED50 apoptosis (TUNEL-positive cells)", "setting": "HCT116 cells [2]", "result": 2.036, "unit": "µM"}, {"measurement": "inhibition of HCT116 cell migration", "setting": "HCT116 cells [3]", "result": "effectively inhibits the migration capacity"}, {"measurement": "fold enhancement compared to cabozantinib", "setting": "CAKI-1 renal cancer; CAKI-1 cells", "result": 2.0, "unit": "fold"}, {"measurement": "IC50", "setting": "CAKI-1 renal cancer; Homo sapiens, CAKI-1, CCK-8, read-out: IC50 CAKI-1 cells", "result": "2.31 ± 0.67", "unit": "µM"}, {"measurement": "Stability (%)", "setting": "[4]; human plasma, 1 μM, 6 h at 37 °C", "result": 99.3, "unit": "%"}, {"measurement": "fraction unbound at 6 h, 1 μM", "setting": "[4]; human plasma, 1 μM, fraction, read-out: Mean Fu", "result": 0.0158}, {"measurement": "fraction unbound at 6 h, 1 μM", "setting": "[4]; human plasma, 1 μM, read-out: Mean Fb (PPB) (converted)", "result": 0.016}, {"measurement": "plasma protein-binding affinity", "setting": "[4]; species not stated (abstract)", "result": "> 95", "unit": "%"}, {"measurement": "IC50", "setting": "MDA-MB-231", "result": "2.31 ± 0.67", "unit": "µM"}, {"measurement": "IC50", "setting": "hERG potassium channel", "result": "> 40", "unit": "µM"}, {"measurement": "IC50", "setting": "c-Met kinase", "result": "0.0261 ± 0.0077", "unit": "µM"}, {"measurement": "AUC(0-t)", "setting": "[5]; [6]", "result": 2150, "unit": "ng·h/mL"}, {"measurement": "half-life", "setting": "[5]; [6]", "result": 3.33, "unit": "h"}, {"measurement": "clearance", "setting": "[5]; both sexes, plasma, iv, SD rats, i.v., 2 mg/kg, read-out: CL_obs", "result": 16.4, "unit": "mL/min/kg"}, {"measurement": "MRT inf", "setting": "[5]; both sexes, plasma, iv, SD rats, i.v., 2 mg/kg", "result": 3.23, "unit": "h"}, {"measurement": "bioavailability", "setting": "[5]; both sexes, plasma, oral, SD rats, p.o. 10 mg/kg vs i.v. 2 mg/kg, read-out: F (oral bioavailability)", "result": 45.3, "unit": "%"}, {"measurement": "AUC(0-t)", "setting": "[5]; [7]", "result": 4630, "unit": "ng·h/mL"}, {"measurement": "Cmax", "setting": "[5]; [7]", "result": 740, "unit": "ng/mL"}, {"measurement": "Tmax", "setting": "[5]; [7]", "result": 4, "unit": "h"}, {"measurement": "half-life", "setting": "[5]; [7]", "result": 3.46, "unit": "h"}, {"measurement": "MRT inf", "setting": "[5]; both sexes, plasma, po, SD rats, p.o., 10 mg/kg", "result": 6.52, "unit": "h"}, {"measurement": "oral bioavailability, fold higher than 18c", "setting": "[5]; in vivo, po", "result": 16, "unit": "fold"}]}
